Data from US12534452B2, “N-(1H-imidazol-2-yl)benzamide compound and pharmaceutical composition comprising the same as active ingredient” (KAINOS MEDICINE, INC., priority 2019, dated 2026).
pIC50: −log10 of the molar value.

Each compound was assayed against IRAK4 (Homo sapiens (Human), UniProt Q9NWZ3) (assay: In vitro IRAK4 phosphorylation activity assay). Settings: [γ-33P]-ATP, myelin basic protein substrate, 40 minutes at room temperature; categories.
Type: biochemical
How it was run: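 Radiometric filter-binding assay, no compound–kinase preincubation; 8 mM MOPS pH 7.0, 0.2 mM EDTA, 10 mM Mg acetate, 0.33 mg/mL myelin basic protein substrate, [γ-33P]-ATP. Reaction 40 min at room temperature, stopped with phosphoric acid, scintillation counting; IC50 reported in categories.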

IRAK4, sequence (Q9NWZ3 whole entry): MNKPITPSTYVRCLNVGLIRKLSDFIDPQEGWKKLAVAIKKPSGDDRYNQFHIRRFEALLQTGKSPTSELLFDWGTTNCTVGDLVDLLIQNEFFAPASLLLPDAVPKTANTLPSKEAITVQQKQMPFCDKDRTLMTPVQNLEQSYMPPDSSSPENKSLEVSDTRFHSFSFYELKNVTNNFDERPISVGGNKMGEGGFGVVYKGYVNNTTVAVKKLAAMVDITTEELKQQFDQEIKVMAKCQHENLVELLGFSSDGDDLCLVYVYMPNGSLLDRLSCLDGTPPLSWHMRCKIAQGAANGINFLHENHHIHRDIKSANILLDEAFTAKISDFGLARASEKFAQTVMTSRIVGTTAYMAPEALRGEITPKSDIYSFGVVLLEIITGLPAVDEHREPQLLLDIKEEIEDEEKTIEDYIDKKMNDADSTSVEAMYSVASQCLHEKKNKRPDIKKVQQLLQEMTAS

SMILES	pIC50
O=C(CCCc1cn(-c2ccccc2)c(NC(=O)c2cccc(-c3ccncc3)c2)n1)NC1CC1 [Example 267, N-(4-(4-(cyclopropylamino)-4-oxobutyl)-1-phenyl-1H-imidazol-2-yl)-3-(pyridin-4-yl)benzamide]	> 7.30
O=C(Nc1nc(CCCCCCN2CCCCC2)cn1-c1ccccc1)c1cccc(-c2ccncc2)c1 [Example 268, N-(1-phenyl-4-(6-(piperidin-1-yl)hexyl)-1H-imidazol-2-yl)-3-(pyridin-4-yl)benzamide]	7.00 to 7.30
O=C(Nc1nc(CCCCCCN2CCCCC2)cn1-c1ccccc1)c1cccc(-c2ccccn2)c1 [Example 269, N-(1-phenyl-4-(6-(piperidin-1-yl)hexyl)-1H-imidazol-2-yl)-3-(pyridin-2-yl)benzamide]	< 7.00
O=C(Nc1nc(CCCCCCN2CCCCC2)cn1-c1ccccc1)c1cccc(-c2cccnc2)c1 [Example 270, N-(1-phenyl-4-(6-(piperidin-1-yl)hexyl)-1H-imidazol-2-yl)-3-(pyridin-3-yl)benzamide]	> 7.30
Nc1ccc(-c2cccc(C(=O)Nc3nc(CCCCCC(=O)N4CCCCC4)cn3-c3ccccc3)c2)cn1 [Example 271, 3-(6-aminopyridin-3-yl)-N-(4-(6-oxo-6-(piperidin-1-yl)hexyl)-1-phenyl-1H-imidazol-2-yl)benzamide]	> 7.30
CN1CCN(C(=O)CCCCCc2cn(-c3ccccc3)c(NC(=O)c3cccc(-c4ccc(N)nc4)c3)n2)CC1 [Example 272, 3-(6-aminopyridin-3-yl)-N-(4-(6-(4-methylpiperazin-1-yl)-6-oxohexyl)-1-phenyl-1H-imidazol-2-yl)benzamide]	> 7.30
Nc1ccc(-c2cccc(C(=O)Nc3nc(CCCC(=O)N4CCCCC4)cn3-c3ccccc3)c2)cn1 [Example 273, 3-(6-aminopyridin-3-yl)-N-(4-(4-oxo-4-(piperidin-1-yl)butyl)-1-phenyl-1H-imidazol-2-yl)benzamide]	> 7.30
CN1CCN(C(=O)CCCc2cn(-c3ccccc3)c(NC(=O)c3cccc(-c4ccc(N)nc4)c3)n2)CC1 [Example 274, 3-(6-aminopyridin-3-yl)-N-(4-(4-(4-methylpiperazin-1-yl)-4-oxobutyl)-1-phenyl-1H-imidazol-2-yl)benzamide]	> 7.30
Nc1ccc(-c2cccc(C(=O)Nc3nc(CCCCCCN4CCCCC4)cn3-c3ccccc3)c2)cn1 [Example 275, 3-(6-aminopyridin-3-yl)-N-(1-phenyl-4-(6-(piperidin-1-yl)hexyl)-1H-imidazol-2-yl)benzamide]	> 7.30
Nc1ccc(-c2cccc(C(=O)Nc3nc(CCCCCCN4CCCC4=O)cn3-c3ccccc3)c2)cn1 [Example 276, 3-(6-aminopyridin-3-yl)-N-(4-(6-(2-oxopyrrolidin-1-yl)hexyl)-1-phenyl-1H-imidazol-2-yl)benzamide]	> 7.30
Nc1ccc(-c2cccc(C(=O)Nc3nc(CCCCN4CCCC4=O)cn3-c3ccccc3)c2)cn1 [Example 277, 3-(6-aminopyridin-3-yl)-N-(4-(4-(2-oxopyrrolidin-1-yl)butyl)-1-phenyl-1H-imidazol-2-yl)benzamide]	> 7.30
Nc1ccc(-c2cccc(C(=O)Nc3nc(CCCCCCNC(=O)C4CC4)cn3-c3ccccc3)c2)cn1 [Example 278, 3-(6-aminopyridin-3-yl)-N-(4-(6-(cyclopropanecarboxamido)hexyl)-1-phenyl-1H-imidazol-2-yl)benzamide]	> 7.30
O=C(CCCc1cn(-c2ccccc2)c(NC(=O)c2cccc(-c3ccc4ncsc4c3)c2)n1)NC1CC1 [Example 279, 3-(benzo[d]thiazol-6-yl)-N-(4-(4-(cyclopropylamino)-4-oxobutyl)-1-phenyl-1H-imidazol-2-yl)benzamide]	> 7.30
CN1CCN(C(=O)CCCc2cn(-c3ccccc3)c(NC(=O)c3cccc(-c4ccc5ncsc5c4)c3)n2)CC1 [Example 280, 3-(benzo[d]thiazol-6-yl)-N-(4-(4-(4-methylpiperazin-1-yl)-4-oxobutyl)-1-phenyl-1H-imidazol-2-yl)benzamide]	> 7.30
CN(C)C1CCN(C(=O)CCCc2cn(-c3ccccc3)c(NC(=O)c3cccc(-c4ccc5ncsc5c4)c3)n2)CC1 [Example 281, 3-(benzo[d]thiazol-6-yl)-N-(4-(4-(4-(dimethylamino)piperidin-1-yl)-4-oxobutyl)-1-phenyl-1H-imidazol-2-yl)benzamide]	> 7.30
CN(C)C1CCN(C(=O)CCCc2cn(-c3ccccc3)c(NC(=O)c3cccc(-c4ccc5scnc5c4)c3)n2)CC1 [Example 282, 3-(benzo[d]thiazol-5-yl)-N-(4-(4-(4-(dimethylamino)piperidin-1-yl)-4-oxobutyl)-1-phenyl-1H-imidazol-2-yl)benzamide]	< 7.00
O=C(CCCc1cn(-c2ccccc2)c(NC(=O)c2cccc(-c3ccc4scnc4c3)c2)n1)NC1CC1 [Example 283, 3-(benzo[d]thiazol-5-yl)-N-(4-(4-(cyclopropylamino)-4-oxobutyl)-1-phenyl-1H-imidazol-2-yl)benzamide]	< 7.00
CN1CCN(C(=O)CCCc2cn(-c3ccccc3)c(NC(=O)c3cccc(-c4ccc5scnc5c4)c3)n2)CC1 [Example 284, 3-(benzo[d]thiazol-5-yl)-N-(4-(4-(4-methylpiperazin-1-yl)-4-oxobutyl)-1-phenyl-1H-imidazol-2-yl)benzamide]	< 7.00
CN1CCN(C(=O)CCCCCc2cn(-c3ccccc3)c(NC(=O)c3cccc(-c4ccc5ncsc5c4)c3)n2)CC1 [Example 285, 3-(benzo[d]thiazol-6-yl)-N-(4-(6-(4-methylpiperazin-1-yl)-6-oxohexyl)-1-phenyl-1H-imidazol-2-yl)benzamide]	> 7.30
O=C(CCCCCc1cn(-c2ccccc2)c(NC(=O)c2cccc(-c3ccc4ncsc4c3)c2)n1)NC1CC1 [Example 286, 3-(benzo[d]thiazol-6-yl)-N-(4-(6-(cyclopropylamino)-6-oxohexyl)-1-phenyl-1H-imidazol-2-yl)benzamide]	> 7.30
CN(C)C1CCN(C(=O)CCCCCc2cn(-c3ccccc3)c(NC(=O)c3cccc(-c4ccc5ncsc5c4)c3)n2)CC1 [Example 287, 3-(benzo[d]thiazol-6-yl)-N-(4-(6-(4-(dimethylamino)piperidin-1-yl)-6-oxohexyl)-1-phenyl-1H-imidazol-2-yl)benzamide]	> 7.30
CN1CCN(C(=O)CCCCCc2cn(-c3ccccc3)c(NC(=O)c3cccc(-c4ccc5scnc5c4)c3)n2)CC1 [Example 288, 3-(benzo[d]thiazol-5-yl)-N-(4-(6-(4-methylpiperazin-1-yl)-6-oxohexyl)-1-phenyl-1H-imidazol-2-yl)benzamide]	< 7.00
O=C(Nc1nc(CCCCCC(=O)N2CCCCCC2)cn1-c1ccccc1)c1cccc(-c2ccc3scnc3c2)c1 [Example 289, N-(4-(6-(azepan-1-yl)-6-oxohexyl)-1-phenyl-1H-imidazol-2-yl)-3-(benzo[d]thiazol-5-yl)benzamide]	< 7.00
O=C(CCCCCc1cn(-c2ccccc2)c(NC(=O)c2cccc(-c3ccc4scnc4c3)c2)n1)NC1CC1 [Example 290, 3-(benzo[d]thiazol-5-yl)-N-(4-(6-(cyclopropylamino)-6-oxohexyl)-1-phenyl-1H-imidazol-2-yl)benzamide]	< 7.00
CN(C)C1CCN(C(=O)CCCCCc2cn(-c3ccccc3)c(NC(=O)c3cccc(-c4ccc5scnc5c4)c3)n2)CC1 [Example 291, 3-(benzo[d]thiazol-5-yl)-N-(4-(6-(4-(dimethylamino)piperidin-1-yl)-6-oxohexyl)-1-phenyl-1H-imidazol-2-yl)benzamide]	< 7.00
